Counter-ions that a name gives are not always drawn.
molecular target: HIF PHD2 (Homo sapiens, UniProt Q9GZT9); assay: PHD2 inhibition assay (TR-FRET, VCB-Eu detection of hydroxylated P564-HIF1α peptide); type: biochemical; conditions: 2 nM PHD2, 100 nM P564-HIF1α peptide, 0.25 μM 2-oxoglutarate
Procedure: Inhibition of HIF PHD2 activity was quantified utilizing the TR-FRET technology. HIF PHD2 catalyzes a hydroxyl modification on the proline residue of the P564-HIF1α peptide substrate (Biotin-DLEMLAPYIPMDDDFQL (SEQ ID NO: 7)) resulting in recognition and binding of the europylated Von Hippel-Lindau protein (pVHL), elongin B and elongin C heterotrimeric (VCB-Eu) complex.
The PHD2 inhibition assay was executed by addition of freshly dissolved FeCl2 to 178.57 μM (100 μM final concentration) in PHD2 Reaction Buffer containing 30 mM MES, pH 6, 10 mM NaCl, 0.25% Brij-35, 0.01% BSA, and 1% DMSO. 28 μL of the iron solution and 2 μL of inhibitor compounds serially diluted in 100% DMSO (5% DMSO final) were added to black polypropylene 96-well microtiter plates. To that, 10 μL of 10 nM PHD2 (2 nM final) was added to all wells of the plate except for the 8 wells of column 12 (LO control), and allowed to incubate at room temperature on the shaker for one hour. Column 6 was the HI control containing PHD2 enzyme and 5% DMSO vehicle, but no inhibitor compound. To initiate the PHD2 enzymatic reaction, 10 μL of a solution containing 500 nM P564-HIF1α peptide (100 nM final), 10 mM ascorbic acid (2 mM final), and 1.25 μM 2-oxoglutarate (α-ketoglutarate; 0.25 μM final) in PHD2 Reaction Buffer was added to all wells of the plate and allowed to incubate on the shaker at room temperature for one hour.
The reaction was terminated by addition of 25 μL TR-FRET Buffer (50 mM TRIS-HCl, pH 9, 100 mM NaCl, 0.05% BSA, and 0.5% Tween-20) containing 150 mM succinate (product inhibitor; 50 mM final), 75 nM streptavidin-APC (25 nM final), and 7.5 nM VCB-Eu (2.5 nM final). The TR-FRET detection reagents were placed on a shaker for 1 hour to reach binding equilibrium before reading on the Discovery platform (PerkinElmer). Europium is excited at 315 nm and phosphoresces at 615 nm with a large Stoke's shift. APC, in turn, emits at 655 nm upon excitation at 615 nm. The TR-FRET signal is measured as the ratio of the APC 655 nm signal divided by the internal europium reference 615 nm emission signal.
The POC (percentage of control) was determined by comparing the signal from hydroxylated peptide substrate in the enzyme reaction containing inhibitor compound with that from PHD2 enzyme with DMSO vehicle alone (HI control), and no enzyme (LO control). POC was calculated using the formula: % control (POC)=(cpd−average LO)/(average HI−average LO)*100. Data (consisting of POC and inhibitor concentration in μM) was fitted to a 4-parameter equation (y=A+((B−A)/(1+((x/C)^D))), where A is the minimum y (POC) value, B is the maximum y (POC), C is the x (cpd concentration) at the point of inflection and D is the slope factor) using a Levenburg-Marquardt non-linear regression algorithm.

Chain of HIF PHD2 (Q9GZT9 whole entry): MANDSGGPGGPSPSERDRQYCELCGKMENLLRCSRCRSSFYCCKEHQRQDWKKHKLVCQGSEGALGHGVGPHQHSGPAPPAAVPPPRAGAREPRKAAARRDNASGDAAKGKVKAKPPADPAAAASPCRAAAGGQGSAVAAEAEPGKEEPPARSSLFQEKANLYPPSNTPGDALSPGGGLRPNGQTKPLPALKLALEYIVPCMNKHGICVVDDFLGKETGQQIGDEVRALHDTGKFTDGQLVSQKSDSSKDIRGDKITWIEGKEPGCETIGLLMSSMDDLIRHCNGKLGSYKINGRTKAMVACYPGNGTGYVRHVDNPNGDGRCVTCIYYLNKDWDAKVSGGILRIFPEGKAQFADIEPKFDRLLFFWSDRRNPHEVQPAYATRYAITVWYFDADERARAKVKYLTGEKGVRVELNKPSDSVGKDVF

| SMILES | IC50 [nM] |
| --- | --- |
| Cn1c(=O)c(C(=O)NCC(=O)O)c(O)c2cc(C3=CCNCC3)ncc21 [Example 114, 2-(4-Hydroxy-1-methyl-2-oxo-6-(1,2,3,6-tetrahydropyridin-4-yl)-1,2-dihydro-1,7-naphthyridine-3-carboxamido)acetic acid, Trifluoroacetic acid salt] | 50 to 100 |
| Cn1c(=O)c(C(=O)NCC(=O)O)c(O)c2cc(-c3ccccc3)cnc21 [Example 46, 2-(4-Hydroxy-1-methyl-2-oxo-6-phenyl-1,2-dihydro-1,8-naphthyridine-3-carboxamido)acetic acid] | 100 to 500 |
| CN1CCOc2cc(-c3cnc4c(c3)c(O)c(C(=O)NCC(=O)O)c(=O)n4C)ccc21 [Example 56, N-((4-Hydroxy-1-methyl-6-(4-methyl-3,4-dihydro-2H-1,4-benzoxazin-7-yl)-2-oxo-1,2-dihydro-1,8-naphthyridin-3-yl)carbonyl)glycine] | 50 to 100 |
| Cn1c(=O)c(C(=O)NCC(=O)O)c(O)c2cc(-c3ccccc3)nc(C(F)(F)F)c21 [Example 124, 2-(4-Hydroxy-1-methyl-2-oxo-6-phenyl-8-(trifluoromethyl)-1,2-dihydro-1,7-naphthyridine-3-carboxamido)acetic acid] | 100 to 500 |
| Cn1c(=O)c(C(=O)NCC(=O)O)c(O)c2ccc(N3CCOCC3)nc21 [Example 23, 2-(4-Hydroxy-1-methyl-7-morpholino-2-oxo-1,2-dihydro-1,8-naphthyridine-3-carboxamido)acetic acid] | 100 to 500 |
| COc1cncc(-c2cnc3c(c2)c(O)c(C(=O)NCC(=O)O)c(=O)n3C)c1 [Example 55, N-((4-Hydroxy-1-methyl-6-(5-(methyloxy)-3-pyridinyl)-2-oxo-1,2-dihydro-1,8-naphthyridin-3-yl)carbonyl)glycine] | 50 to 100 |
| CC(C)Oc1ccc(-c2cnc3c(c2)c(O)c(C(=O)NCC(=O)O)c(=O)n3C)cc1 [Example 37, N-((4-Hydroxy-1-methyl-6-(4-((1-methylethyl)oxy)phenyl)-2-oxo-1,2-dihydro-1,8-naphthyridin-3-yl)carbonyl)glycine] | 100 to 500 |
| Cn1c(=O)c(C(=O)NCC(=O)O)c(O)c2ccc(C3CCCCC3)nc21 [Example 18, 2-(7-Cyclohexyl-4-hydroxy-1-methyl-2-oxo-1,2-dihydro-1,8-naphthyridine-3-carboxamido)acetic acid] | 100 to 500 |
| Cn1c(=O)c(C(=O)NCC(=O)O)c(O)c2cc(N3CCCCC3)ncc21 [Example 121, 2-(4-Hydroxy-1-methyl-2-oxo-6-(piperidin-1-yl)-1,2-dihydro-1,7-naphthyridine-3-carboxamido)acetic acid, Trifluoroacetic acid salt] | 50 to 100 |
| CN(C)c1ccc(-c2cnc3c(c2)c(O)c(C(=O)NCC(=O)O)c(=O)n3C)cn1 [Example 62, N-((6-(6-(Dimethylamino)-3-pyridinyl)-4-hydroxy-1-methyl-2-oxo-1,2-dihydro-1,8-naphthyridin-3-yl)carbonyl)glycine] | < 50 |
| C#Cc1cnc2c(c1)c(O)c(C(=O)NCC(=O)O)c(=O)n2C [Example 80, 2-(6-Ethynyl-4-hydroxy-1-methyl-2-oxo-1,2-dihydro-1,8-naphthyridine-3-carboxamido)acetic acid] | 100 to 500 |
| Cn1c(=O)c(C(=O)NCC(=O)O)c(O)c2cc(C3CCCO3)c(C(F)(F)F)nc21 (racemic) [Example 99, (R,S) 2-(4-Hydroxy-1-methyl-2-oxo-6-(tetrahydrofuran-2-yl)-7-(trifluoromethyl)-1,2-dihydro-1,8-naphthyridine-3-carboxamido)acetic acid] | < 50 |
| Cn1c(=O)c(C(=O)NCC(=O)O)c(O)c2cc(-c3ccc4c(c3)CCO4)cnc21 [Example 39, N-((6-(2,3-Dihydro-1-benzofuran-5-yl)-4-hydroxy-1-methyl-2-oxo-1,2-dihydro-1,8-naphthyridin-3-yl)carbonyl)glycine] | 50 to 100 |

The remaining lines, values ahead:

| IC50 [nM] | SMILES |
| --- | --- |
| < 50 | Cn1c(=O)c(C(=O)NCC(=O)O)c(O)c2ncc(C3=CCCC3)cc21 [Example 4, 2-(7-Cyclopentenyl-4-hydroxy-1-methyl-2-oxo-1,2-dihydro-1,5-naphthyridine-3-carboxamido)acetic acid] |
| < 50 | Cn1c(=O)c(C(=O)NCC(=O)O)c(O)c2cc(I)cnc21 [Example 75, 2-(4-Hydroxy-6-iodo-1-methyl-2-oxo-1,2-dihydro-1,8-naphthyridine-3-carboxamido)acetic acid] |
| < 50 | Cn1c(=O)c(C(=O)NCC(=O)O)c(O)c2cc(C3=CCCCC3)cnc21 [Example 67, 2-(6-Cyclohexenyl-4-hydroxy-1-methyl-2-oxo-1,2-dihydro-1,8-naphthyridine-3-carboxamido)acetic acid] |
| < 50 | CN1CCC(c2cc3c(O)c(C(=O)NCC(=O)O)c(=O)n(C)c3cn2)CC1 [Example 117, 2-(4-Hydroxy-1-methyl-6-(1-methylpiperidin-4-yl)-2-oxo-1,2-dihydro-1,7-naphthyridine-3-carboxamido)acetic acid, Trifluoroacetic acid salt] |
| < 50 | Cn1c(=O)c(C(=O)NCC(=O)O)c(O)c2ncc(-c3cccs3)cc21 [Example 2, 2-(4-Hydroxy-1-methyl-2-oxo-7-(thiophen-2-yl)-1,2-dihydro-1,5-naphthyridine-3-carboxamido)acetic acid] |
| < 50 | Cc1nc(F)ccc1-c1cnc2c(c1)c(O)c(C(=O)NCC(=O)O)c(=O)n2C [Example 47, 2-(6-(6-Fluoro-2-methylpyridin-3-yl)-4-hydroxy-1-methyl-2-oxo-1,2-dihydro-1,8-naphthyridine-3-carboxamido)acetic acid] |
| < 50 | Cn1c(=O)c(C(=O)NCC(=O)O)c(O)c2cc(C3=CCCCC3)c(C(F)(F)F)nc21 [Example 96, 2-(6-Cyclohexenyl-4-hydroxy-1-methyl-2-oxo-7-(trifluoromethyl)-1,2-dihydro-1,8-naphthyridine-3-carboxamido)acetic acid] |
| < 50 | C#Cc1ccc2c(O)c(C(=O)NCC(=O)O)c(=O)n(C)c2n1 [Example 20, 2-(7-Ethynyl-4-hydroxy-1-methyl-2-oxo-1,2-dihydro-1,8-naphthyridine-3-carboxamido)acetic acid] |
| < 50 | Cn1c(=O)c(C(=O)NCC(=O)O)c(O)c2cc(-c3cc(Cl)ncn3)cnc21 [Example 31, 2-(6-(6-Chloropyrimidin-4-yl)-4-hydroxy-1-methyl-2-oxo-1,2-dihydro-1,8-naphthyridine-3-carboxamido)acetic acid] |
| < 50 | Cn1c(=O)c(C(=O)NCC(=O)O)c(O)c2cc(N3CCOCC3)ncc21 [Example 120, 2-(4-Hydroxy-1-methyl-6-morpholino-2-oxo-1,2-dihydro-1,7-naphthyridine-3-carboxamido)acetic acid, Trifluoroacetic acid salt] |
| < 50 | Cc1ncccc1-c1cc2c(O)c(C(=O)NCC(=O)O)c(=O)n(C)c2nc1C(F)(F)F [Example 92, 2-(4-Hydroxy-1-methyl-6-(2-methylpyridin-3-yl)-2-oxo-7-(trifluoromethyl)-1,2-dihydro-1,8-naphthyridine-3-carboxamido)acetic acid] |
| < 50 | Cn1c(=O)c(C(=O)NCC(=O)O)c(O)c2ncc(Br)cc21 [Example 1, N-((7-Bromo-4-hydroxy-1-methyl-2-oxo-1,2-dihydro-1,5-naphthyridin-3-yl)carbonyl)glycine] |

Source: patent US8048892B2, “Azaquinolone based compounds exhibiting prolyl hydroxylase inhibitory activity, compositions, and uses thereof” (Amgen Inc., priority 2006, dated 2011)
